Results on one compound are retold here after patent US20130323303A1, “DRUG CARRIER AND PREPARATION METHOD THEREOF” (NATIONAL CHIAO TUNG UNIVERSITY, priority 2012, published 2013).

The test concerns tumor (transplanted cancer cells carrying fluorescent gene). The test is described as follows: Animal tumor model, tumor size recorded via in vivo imaging system (IVIS). As to conditions: mouse model, after 28 days of drug treatment. Here is the method: Under the in vivo experiment of animal tumor model, first a mouse model treated with doxorubucin was prepared as the control group, and another mouse model treated with the oral drug carrier containing doxorubucin was prepared as the experimental group. After drug treatment, the mouse models were recorded the variation of tumor size via in vivo imaging system (IVIS) (because of the mice transplanted with the cancer cells carrying fluorescent gene).
FIG. 6A and 6B are […] of the experimental group that the mouse model was treated with drug at 0 day and after 28 days. The tumor size of the mouse model in the experimental group was 65% compared to before treatment. FIG. 6C and 6D are IVIS photos of the control group that the mouse model was treated with drug at 0 day and after 28 days. […] FIG. 7 is a variation graph in fluorescence values of tumor cells tested by IVIS, and the tumor cells were from the above mouse model treated with drug.

SMILES strings stand for the structures.

Turning to `COc1cccc2c1C(=O)c1c(O)c3c(c(O)c1C2=O)C[C@@](O)(C(=O)CO)C[C@@H]3O[C@H]1C[C@H](N)[C@H](O)[C@H](C)O1` [doxorubucin, doxorubicin], the “tumor size compared to before treatment” value was 200%.
